According to patent publication US9764046B2, “Labeling composition for intraocular tissue, labeling method of intraocular tissue, and screening method” (CANON KABUSHIKI KAISHA, priority 2008, dated 2017):

Columns and labels:
[1] = system: fundus (retina) of Zebrafish fry; test: In vivo intraocular observation of the fundus of living Zebrafish fry by confocal microscope; details: 1 μg/mL, 1 hour exposure;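 also: +++ photoreceptor and inner retinal layers stained ++ mainly photoreceptor layer − none seen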
Description: In an arbitrary well of a 24-well multiplate, were put 1 mL of Staining Liquid 2 and a fry of Zebrafish, and the plate was left to stand for 1 hour. A process of removing Staining Liquid 2 in the well and replacing it by 1 mL of distilled water was then performed 3 times.
The fry was then put in a 0.7% agarose solution and placed on a slide glass to observe the fundus of the fry through a confocal microscope.

[2] = Excitation and fluorescence wavelengths by fluorescence spectrometer FL4500; assay type: physicochemical; details: aqueous solution: 10 mg/mL DMSO solution diluted to 1/500 with purified water (Examples 1 to 94); in nm (unit assumed)
retina of B10 mouse = test: Staining of mouse intraocular tissue after administration to the abdominal cavity; assay type: in vivo; details: 3-month-old B10 mouse, 0.2 mL of 10 mg/mL supernatant to abdominal cavity, eyeball taken after 1 hour
Description: Staining compound 81 was added to an equimolar amount of a NaOH solution so as to give a concentration of 10 mg/mL, and the resultant mixture was centrifuged for 5 minutes at 14 krpm to obtain a supernatant. To an abdominal cavity of a 3-month-old B10 mouse, was administered 0.2 mL of this supernatant at one time. After 1 hour, the thus-treated animal was sacrificed under anesthesia by diethyl ether, and an eyeball thereof was taken out. The eyeball taken was embedded in an OCT compound and frozen in isopentane chilled with liquid nitrogen. This eyeball was sliced into a thickness of about 5 μm in a cryostat chilled to −20° C., and this slice was placed on a slide glass and dried to prepare a section of an ocular tissue. The thus-prepared ocular tissue section was observed through a confocal microscope (Pascal Exciter, manufactured by Zeiss Co.).

[3] = system: intraocular tissue (retinal tissue incl. photoreceptor cell layer, vitreous body) of Zebrafish 7-day-old embryo; test: Staining of intraocular tissue of Zebrafish fry by exposure to staining liquid, ocular tissue section observed by confocal microscope; assay type: in vivo; details: Zebrafish 7 dpf fry, 1 μg/mL, 1 hour exposure, fixed ocular section
[4] = system: photoreceptor cell layer in tissue section of the Zebrafish eyeball; test: Stained slide of frozen tissue section of Zebrafish eyeball, co-staining with anti-Zpr-1 or anti-Zpr-3 antibody
Excerpt: After an eyeball of a fry of Zebrafish 7-day-old embryo (7 dpf) was immobilized with a PBS solution of 4% paraformaldehyde (PFA), the solution was replaced by a PBS solution of 30% sucrose, and the eyeball was embedded in an OCT compound (product of Tissue-Tek Co.) and frozen with liquid nitrogen. The frozen sample was sliced into a 7-1 μm section by Cryostat (Tissue•Tek Cryo 3, manufactured by Sakura Finetek Japan Co., Ltd.) and extended on a MAS-coated slide glass (product of […] GLASS IND., LTD) to obtain a tissue section slide of the Zebrafish eyeball. The slide glass was treated with a blocking solution (Blocking One, product of Nakarai Co.) for 30 minutes at room temperature, and an anti-Zpr-1 antibody (which stains red and green cone cells) diluted with PBS was mounted as a primary antibody on the slide glass and treated for 12 hours at 4° C. The slide glass was then washed 3 times with PBST for 10 minutes, and a secondary antibody (Alexa 488-anti-mouse IgG antibody) and 1 μg/mL of Compound 5 were diluted with PBS and mounted on the slide glass for 1 hour at room temperature. The slide glass was washed 3 times with PBST for 10 minutes, Fluoromount G (product of Southem Biotechnology Co.) was mounted thereon, and a cover glass was placed thereon. The thus-obtained stained slide of the tissue section of the Zebrafish eye ball was observed through a confocal microscope.
A stained slide of a tissue section of a Zebrafish eye ball was prepared according to the same process as in Example 120 except that the primary antibody used in Example 120 was changed to an anti-Zpr-3 antibody (which stains rod cells), and observed through a confocal microscope.

Compound | Result of observation (staining ability, in vivo fundus) [1] | λem (fluorescence wavelength) [2] | λex (excitation wavelength) [2] | Staining ability to the retina (retina of B10 mouse) | Staining ability [3] | Overlap of stained images with anti-Zpr-1 antibody (red and green cone cells) in the photoreceptor cell layer ([4]; Example 120, 1 μg/mL on frozen section) | Overlap of stained images with anti-Zpr-3 antibody (rod cells) in the photoreceptor cell layer ([4]; Example 121, 1 μg/mL on frozen section) | Selectivity of staining within the photoreceptor cell layer ([4]; Examples 120 and 121) | Staining of photoreceptor cell layer and of red and green cone cells ([4]; conclusion from Example 120) | Cell types stained in the photoreceptor cell layer ([4]; conclusion from Example 121)
CCN1c2ccc(/C=C3/SC(=S)N(CCC(=O)O)C3=O)cc2C2CCCC21 (centres unmarked) [Compound 81] | +++ | 604 | 576 | has staining ability to the retina | ++ | – | – | – | – | –
CCN(CC)c1ccc2cc3c(oc2c1)c(C#N)c(=N)n1c2ccccc2nc31 [Compound 5] | +++ | 577 | 556 | – | +++ | did not overlap | partially overlapped | selectively stains a part of the cell types in the photoreceptor cell layer or of the cell bodies existing in the photoreceptor cell layer | has staining ability to the photoreceptor cell layer but does not stain the red and green cone cells in the photoreceptor cell layer | has stained the rod cells and at least one kind of cell type of blue or ultraviolet cone cells
